# Laboratory results published in ChEMBL document CHEMBL1158002, “Aurantoside C, a new tetramic acid glycoside from the sponge Homophymia conferta” (J Nat Prod, 1999).
# Assay: Toxicity against brine shrimp
# Format: organism-based
# Conditions: artemia, in vivo
smiles,measurement,value
C/C(Cl)=C/C=C/C(Cl)=C/C=C/C=C/C=C/C=C/C(O)=C1\C(=O)[C@H](CC(N)=O)N([C@@H]2OC[C@@H](O)[C@H](O)[C@H]2O[C@@H]2O[C@H](CO)[C@@H](O[C@@H]3O[C@H](C)[C@@H](O)[C@@H]3O)[C@@H]2O)C1=O [AURANTOSIDE C],LC50,50 µg/mL
